Consider 19 compounds from patent EP4455142A1, “NOVEL INHIBITOR OF QPCTL AND/OR QC” (Scenic Immunology B.V., priority 2023, dated 2024).

The target in assay [1] is T1, recombinant QC enzyme (Homo sapiens, UniProt Q16769).
T1 construct: bacterial expression of residues 33-361 of uniprot ID Q16769, fused to a His tag; His tag (cleaved yes); made in house
As to the kind of experiment: Assay 2 - QC potency, fluorescent enzymatic assay (H-Gln-AMC, coupled pGAPase detection). Format: biochemical. Conditions: 1 hour at 37°C. How it is done:
After scale-up, expression and lysis, protein was purified by Ni-NTA IMAC, dialysed in the presence of Factor Xa, further purified by Ni-NTA reverse IMAC and finally filtrated for size on a Superdex 200 16/60 column. Final protein was concentrated using a spin concentrator at 10 kDa molecular weight cut-off and formulated in 150 mM NaCl, 50 mM Tris-HCl, 50% Glycerol, pH 8.0.
(§1) Pyroglutamylation was measured by conversion of glutamine-4-amino-7-methylcoumarine (H-Gln-AMC, Bachem) to pyroglutamyl-AMC, which is subsequently a specific substrate for pyroglutamylaminopeptidase (pGAPase, Qiagen), releasing free AMC which can be fluorescently detected. For a typical inhibition assay, 7.5 µL aliquots of threefold dilutions of test compound in 50 mM Tris pH8 buffer were plated in 384-well plates. 15 µL 20 µM h-Gln-AMC (diluted from a 40 mM stock dissolved in 25 mM HEPES using 50 mM Tris-HCl pH 8.0) was added to each well. Finally, 7.5 µL, 3 ng/µL recombinant QC enzyme was added and the reaction mixture was incubated for 1 hour at 37°C. A 5 minute incubation at 98°C was then performed to denature the QC enzyme and stop the reaction.
25 µL of the pyroglutamylation reaction mixture was transferred into an empty plate and to that, 25 µL of the pGAPase enzyme solution was added. Plates were then incubated for 25 minutes at room temperature before fluorescence readings were taken on an Envision2 plate reader with excitation set at 380 nm and emission at 450 nm.
Controls were taken along containing pyroglutamylated-AMC (Bachem, dissolved at 10 mM in DMSO) instead of H-Gln-AMC to control for pGAPase inhibition.
(§2) IC50 values are calculated using non-linear regression analysis with GraphPad Prism software.

Assay [2] deals with T2, human isoQC (Homo sapiens, UniProt Q9NXS2).
T2 construct: The Golgi luminal, enzymatically active region of human isoQC (S53-L382; see, e.g., Huang et al., 2011); GST (with enterokinase site) (N, cleaved yes); made in house; host or cells: E. coli
As to the kind of experiment: Assay 1 - isoQC potency, fluorescent enzymatic assay (H-Gln-AMC, coupled pGAPase detection). Format: biochemical. Conditions: recombinant isoQC, 1 hour at 37°C.
Source text: The Golgi luminal, enzymatically active region of human isoQC (S53-L382; see, e.g., Huang et al., 2011) was obtained by expression in E. coli of an N-terminally GST Enterokinase and C-terminally 6xHis tagged construct in the pET41(+) vector and subsequent purification using Ni-NTA IMAC. Enterokinase digestion ensued, followed by another Ni-NTA IMAC purification, Superdex75 based size exclusion and finally a spin concentration using a 10 kDa molecular weight cutoff. The final protein is formulated in 50 mM Tris-HCl, 150 mM NaCl, 50% Glycerol, pH 7.8.
as §1, with “in 50mM” for “in 50 mM”, “µM hGln-AMC” for “µM h-Gln-AMC”, “Tris-HCl 25” for “Tris-HCl”, “recombinant isoQC” for “recombinant QC”, “the isoQC” for “the QC”
To detect the amount of pyroglutamyl-AMC formed, a 0.125 U/mL pGAPase enzyme diluted in 50 mM Tris-HCl pH 8.0 containing 10 mM dithiothreitol (DTT) solution was prepared. 25 µL of the pyroglutamylation reaction mixture was transferred into an empty plate and to that, 25 µL of the pGAPase enzyme solution was added. Plates were then incubated for 25 minutes at room temperature before fluorescence readings were taken on an Envision2 plate reader with excitation set at 380 nm and emission at 450 nm. DMSO concentrations during the assay never exceeded 1% and activities were compared to controls containing only the same amount of DMSO and no test compound. Controls were taken along containing pyroglutamylated-AMC (Bachem, dissolved at 10 mM in DMSO) instead of H-Gln-AMC to control for pGAPase inhibition.
as §2

Assay [3] concerns pyroglutamylated CD47. As to the kind of experiment: Assay 3 - cell-based potency assay (pyroglutamylation in live cells, total CD47/pE-CD47 dual staining, FACS). Further details: species or system human. Conditions: IC50 of CC2C6 signal, KBM7 cells, 72 hours incubation. How it is done:
Cells were spun for 4 minutes at 1500 rpm and washed once with PBS / 0.5% BSA. Cells were spun down again and the supernatant was removed and incubated in 100 uL antibody staining solution (PBS / 0.5% BSA / 0.1 µg/mL DAPI (4',6-diamidino-2-phenylindole, ThermoFisher Scientific) and a mixture of 1:500 FITC-conjugated anti-human CD47 clone 2D3, which recognizes total CD47 irrespective of its pyroglutamylation state, and 1:500 Alexa647-conjugated anti-human CD47 clone CC2C6, which specifically detects pyroglutamylated CD47) for 2 hours at 4°C. Next, the cells were spun down and washed twice with 2 x 150 µL PBS / 0.5% BSA to remove unbound antibody. Cells were again spun down and taken up in 300 µL FACS buffer before analysis on a Celesta FACS machine (BD Biosciences).
KBM7 cells (Kotecki et al., 1999) were infected with lentivirus produced by transfecting pSCNC-LentiCRISPR-QPCTL or pSCNC-LentiCRISPR-CD47 into HEK-293T cells according to standard protocols. After 24 hours incubation, cells were selected with puromycin (Invivogen, 1 µg/mL) for 48 hours. Cells were stained for total CD47 and pE-CD47 and QPCTL k.o. cells were sorted out as negative for pE-CD47, and CD47 k.o. cells as negative for total CD47, using a FACSAria III and FACS Diva software (BD Biosciences).
In order to test compounds for their effect on pyroglutamylation in live cells, 25000 KBM7 cells per well were seeded in a 96-well U-bottom plate in 150 µl IMDM / 10% FCS / 1% Pen / Strep medium and a 10-point 2-fold dilution range of test compounds. After 72 hours incubation at 37°C, 5% COz, cells were stained for total CD47 and pE-CD47 and analysed on a BD Celesta using FACS Diva software (BD Biosciences). Cells gated for DAPI negativity were recorded and the median fluorescence intensity (MFI) of each sample was transformed to linearly scale between the MFI's of wildtype and CD47 knockout cells (in case of the 2D3 antibody) and the wildtype and QPCTL knockout cells (in case of the CC2C6 antibody). ICso's were calculated by 3 parameter logistic regression of the CC2C6 signal vs. compound concentration, where the top of the sigmoidal curve was fixed at 1, using R and the drc package (http://www.r-project.org, https://cran.r-project.org/web/packages/drc/index.html).

T1 sequence (Q16769 33-361): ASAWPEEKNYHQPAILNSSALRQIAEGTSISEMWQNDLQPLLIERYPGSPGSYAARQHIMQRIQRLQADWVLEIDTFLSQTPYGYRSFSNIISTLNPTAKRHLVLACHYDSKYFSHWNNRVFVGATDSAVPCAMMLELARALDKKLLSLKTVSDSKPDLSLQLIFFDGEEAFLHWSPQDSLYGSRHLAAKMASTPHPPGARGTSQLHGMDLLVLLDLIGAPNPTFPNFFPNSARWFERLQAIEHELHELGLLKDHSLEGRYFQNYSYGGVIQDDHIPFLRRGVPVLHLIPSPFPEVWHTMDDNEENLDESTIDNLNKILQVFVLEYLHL
T2 sequence (Q9NXS2 53-382): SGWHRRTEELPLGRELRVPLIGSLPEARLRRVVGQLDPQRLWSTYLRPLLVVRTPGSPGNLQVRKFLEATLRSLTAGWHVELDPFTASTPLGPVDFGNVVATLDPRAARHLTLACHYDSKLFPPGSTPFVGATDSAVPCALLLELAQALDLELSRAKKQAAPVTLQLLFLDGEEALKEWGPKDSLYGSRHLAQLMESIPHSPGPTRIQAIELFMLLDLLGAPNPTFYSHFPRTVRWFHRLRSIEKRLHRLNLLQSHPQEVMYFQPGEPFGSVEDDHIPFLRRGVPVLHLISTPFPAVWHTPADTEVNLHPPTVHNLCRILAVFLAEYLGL

In general, IC50 refers to the concentration needed to halve the response being measured. On to `O=C1OC[C@H](c2ccc(-c3ccc(C(F)(F)F)s3)cc2F)N1c1ccc2[nH]cnc2c1` [(8)], for which the 50% inhibitory concentration (IC50) was 86 nM in assay [1]; 13.4 nM in assay [2]; 526 nM in assay [3] (Homo sapiens, KBM-7, 72 h).

On to `O=C1OC[C@H](c2ccc(-c3noc(C(F)(F)F)n3)cc2F)N1c1ccc2[nH]cnc2c1` [(10)], for which the IC50 in assay [1] stood at 48.2 nM; in assay [2], 12.6 nM.

As for `O=C1OC[C@H](c2ccc(-c3cnn(C(F)(F)F)n3)cc2F)N1c1ccc2[nH]cnc2c1` [(6)], the IC50 in assay [1] was found to be 15.1 nM; in assay [2], 3 nM.

For `O=C1OCC(c2ccc(C3CCC(F)(F)CC3)cc2)N1c1ccc2[nH]cnc2c1` (single isomer, unassigned) [(19)-ent1, reference compound], the IC50 in assay [2] was 1240 nM; in assay [3], greater than 12500 nM.

On to `O=C1OC[C@H](c2ccc(-c3cnn(C(F)F)c3)cc2F)N1c1ccc2[nH]cnc2c1` [(12)], for which the IC50 came to 7.5 nM in assay [1]; 3.3 nM in assay [2]; 157 nM in assay [3] (Homo sapiens, KBM-7, 72 h).

Turning to `O=C1OC[C@H](c2ccc(-c3ccn(C(F)(F)F)n3)cc2F)N1c1ccc2[nH]cnc2c1` [(5)], the IC50 in assay [1] is 34.7 nM; in assay [2], 7.7 nM; in assay [3] (Homo sapiens, KBM-7, 72 h), 659 nM.

For the compound `O=C1OCC(c2cc(F)cc(C(F)(F)F)c2)N1c1ccc2[nH]cnc2c1` (racemic) [(17)-Rac, reference compound], the IC50 was 1730 nM in assay [1]; 1200 nM in assay [2]; greater than 50000 nM in assay [3] (Homo sapiens, KBM-7, 72 h).

Take `O=C1OCC(c2cc(F)cc(C(F)(F)F)c2)N1c1ccc2[nH]cnc2c1` (single isomer, unassigned) [(17)-ent1, reference compound]: the IC50 was greater than 10000 nM in assay [1]; 10900 nM in assay [2]; greater than 50000 nM in assay [3] (Homo sapiens, KBM-7, 72 h).

As to `O=C1OC[C@H](c2ccc(-c3cc(C(F)(F)F)no3)cc2F)N1c1ccc2[nH]cnc2c1` [(11)], the IC50 in assay [1] amounted to 24.3 nM; in assay [2] it was 5.2 nM; in assay [3] (Homo sapiens, KBM-7, 72 h), 252 nM.

In the case of `O=C1OC[C@H](c2ccc(-c3cnn(C4CC4(F)F)c3)cc2F)N1c1ccc2[nH]cnc2c1` (stereo partly drawn) [(14)], the IC50 came to 12.7 nM in assay [1] and 3.6 nM in assay [2].

For the compound `O=C1OC[C@H](c2ccc(-c3cnn(C4CC(F)(F)C4)c3)cc2F)N1c1ccc2[nH]cnc2c1` [(16)], the IC50 in assay [1] came out at 9.4 nM; in assay [2] it was 5.1 nM.

In the case of `O=C1OC[C@H](c2ccc(-c3cnn(CC(F)F)c3)cc2F)N1c1ccc2[nH]cnc2c1` [(15)], the concentration for half-maximal inhibition (IC50) came to 8 nM in assay [1]; 2.7 nM in assay [2]; 155 nM in assay [3] (Homo sapiens, KBM-7, 72 h).

As for `O=C1OCC(c2ccc(C3CCC(F)(F)CC3)cc2)N1c1ccc2[nH]cnc2c1` (racemic) [(19)-Rac, reference compound], the IC50 in assay [2] worked out at 63.7 nM; in assay [3] (Homo sapiens, KBM-7, 72 h), 10400 nM.

Turning to `O=C1OCC(c2ccc(N3CCCC3)cc2)N1c1ccc2[nH]cnc2c1` (single isomer, unassigned) [(18)-ent1, reference compound], the IC50 was 2530 nM in assay [1], 1170 nM in assay [2] and greater than 50000 nM in assay [3].

`O=C1OCC(c2ccc(N3CCCC3)cc2)N1c1ccc2[nH]cnc2c1` (racemic) [(18)-Rac, reference compound]: the IC50 was 49.1 nM in assay [1]; 48.4 nM in assay [2]; 8510 nM in assay [3] (Homo sapiens, KBM-7, 72 h).

In the case of `O=C1OC[C@H](c2ccc(-c3nc(C(F)(F)F)cs3)cc2F)N1c1ccc2[nH]cnc2c1` [(9)], the IC50 was found to be 36.1 nM in assay [1]; 9 nM in assay [2]; 622 nM in assay [3] (Homo sapiens, KBM-7, 72 h).

`O=C1OC[C@H](c2ccc(-c3cnn(CF)c3)cc2F)N1c1ccc2[nH]cnc2c1` [(13)]: the IC50 turned out to be 11.3 nM in assay [1]; 4 nM in assay [2]; 401 nM in assay [3] (Homo sapiens, KBM-7, 72 h).

`O=C1OC[C@H](c2ccc(-c3ccc(C(F)(F)F)o3)cc2F)N1c1ccc2[nH]cnc2c1` [(7)]: the IC50 came out at 70.1 nM in assay [1]; 10 nM in assay [2]; 503 nM in assay [3] (Homo sapiens, KBM-7, 72 h).

On to `O=C1OC[C@H](c2ccc(-c3cnn(C(F)(F)F)c3)c(F)c2F)N1c1ccc2[nH]cnc2c1` [(2)], for which the half-inhibitory concentration (IC50) came out at 38.9 nM in assay [1]; 4 nM in assay [2]; 106 nM in assay [3] (Homo sapiens, KBM-7, 72 h).
